Molecules are shown by their SMILES. Where two headings read alike, the source gives them in different places.

Data on 24 compounds can be found in US12558428B2, “Heterobifunctional compounds and their use in treating disease” (Halda Therapeutics OpCo, Inc., priority 2024, dated 2026).

Holding throughout (assay type): cell-based
The subject of experiment [1] is MCF7 cells (ATCC #HTB-22). Put plainly: Cellular growth inhibition assay, MCF7 cells purchased from ATCC. Particulars: Homo sapiens, MCF7, 144 h, Table 8-A; MCF7 cells purchased from ATCC; six days; CellTiter-Glo; read-out: GI50. In short, it runs like this:
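GI50 values come from a four-parameter fit of CellTiter-Glo 2.0 luminescence after six days of compound exposure at 37° C. Seeding density depended on the source: 225 cells/well for ECACC MCF7, 1,500 for ATCC. Medium was RPMI 1640 with 10% FBS and 0.2 U/ml insulin.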
(In general: Cellular ATP, detected with luciferase, serves as a proxy for viable cell number.)

Experiment [2] relates to T-Rex 293 cells lacking increased expression of estrogen receptor alpha protein. Put plainly: Cellular growth inhibition assay, T-Rex 293 cells, (−) doxycycline. Particulars: T-REx-293, 72 h, 72 hours. In short, it runs like this:
(§1)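 Growth of a doxycycline-inducible ERα T-Rex 293 clone, induced or not with 3 ng/mL doxycycline, was followed for 72 h with test compound in hormone-depleted medium. CellTiter-Glo luminescence gave GI50.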

In experiment [3] the test system is T-Rex 293 cells having increased expression of estrogen receptor alpha protein. Put plainly: Cellular growth inhibition assay, T-Rex 293 cells, (+) doxycycline. Particulars: T-REx-293, 72 h, 72 hours. In a few lines:
as §1

[4] abbreviates: Table 7-A, T-Rex 293 cells without doxycycline (lacking increased ERα expression), CellTiter-Glo, read-out: (−) Dox GI50.
Setting [5] is: Table 7-A, T-Rex 293 cells with doxycycline (increased ERα expression), CellTiter-Glo, read-out: (+) Dox GI50.

Broadly, the GI50 is the concentration at which growth is held to half of that of the control. `COc1cc(N2CCN(CC3(O)CCN(c4ccc(C5=N[C@@H](C)c6nnc(C)n6-c6sc(C)c(C)c65)cc4)CC3)CC2)ccc1[C@H]1c2ccc(O)cc2CC[C@H]1c1ccc(F)cc1` (single isomer, unassigned) [III-275]: the GI50 in experiment [1], in experiment [2] (setting [4]) and in experiment [3] (setting [5]) was 50 to 500 nM throughout.

Consider `Cc1sc2c(c1C)C(c1ccc(N3CC(CN4CCN(CC5CN(c6ccc([C@H]7c8ccc(O)cc8CC[C@H]7c7ccccc7)cc6)C5)CC4)C3)cc1)=N[C@@H](C)c1nnc(C)n1-2` [III-147], for which the GI50 in experiment [1], in experiment [2] (setting [4]) and in experiment [3] (setting [5]) was 50 to 500 nM throughout.

For `CC1=C(c2c(F)cc(F)cc2F)C(c2ccc(OCCN3CCC4(CC3)CCN(c3ccc(C5=N[C@@H](C)c6nnc(C)n6-c6sc(C)c(C)c65)cc3)C4)cc2)Oc2ccc(O)cc21` (stereo partly drawn) [V-16], the GI50 lay within 50 to 500 nM in experiment [1], 500 to 2500 nM in experiment [2] (setting [4]) and 500 to 2500 nM in experiment [3] (setting [5]).

With `Cc1sc2c(c1C)C(c1ccc(N3CCC(O)(CN4CCC(c5ccc(C6=C(c7ccc(Cl)cc7Cl)CCCc7cc(C(=O)O)ccc76)cc5)CC4)CC3)cc1)=N[C@@H](C)c1nnc(C)n1-2` [IV-5], the values for the GI50 in experiment [1], in experiment [2] (setting [4]) and in experiment [3] (setting [5]) were 50 to 500 nM, above 2500 nM and below 50 nM, respectively.

Turning to `CC1=C(c2c(F)cc(F)cc2F)C(c2ccc(N3CCN(CC4CN(c5ccc(C6=N[C@@H](C)c7nnc(C)n7-c7sc(C)c(C)c76)cc5)C4)CC3)cc2)Oc2ccc(O)cc21` (stereo partly drawn) [V-21], the concentration for 50% growth inhibition (GI50) in experiment [1] is below 50 nM; in experiment [2] (setting [4]), 50 to 500 nM; in experiment [3] (setting [5]), below 50 nM.

For the compound `Cc1sc2c(c1C)C(c1ccc(N3CCN(CC4CCN(c5ccc([C@@H]6c7ccc(O)cc7CC[C@@H]6c6ccccc6)cc5)CC4)CC3)cc1)=N[C@@H](Cc1nccs1)c1nnc(C)n1-2` [III-232], the values for the GI50 in experiment [1], in experiment [2] (setting [4]) and in experiment [3] (setting [5]) were below 50 nM, above 2500 nM and below 50 nM, respectively.

As for `Cc1sc2c(c1C)C(c1ccc(CC3CC4(CCN(CCOc5ccc(C(=O)c6c(-c7ccc(O)cc7)sc7cc(O)ccc67)cc5)CC4)C3)cc1)=N[C@@H](Cc1ncco1)c1nnc(C)n1-2` [I-30, (S)-(6-hydroxy-2-(4-hydroxyphenyl)benzo[b]thiophen-3-yl)(4-(2-(2-(4-(2,3,9-trimethyl-6-(oxazol-2-ylmethyl)-6H-thieno[3,2-f][1,2,4]triazolo[4,3-a][1,4]diazepin-4-yl)benzyl)-7-azaspiro[3.5]nonan-7-yl)ethoxy)phenyl)methanone], the GI50 in experiment [1] is below 50 nM; in experiment [2] (T-Rex 293 cells without doxycycline, CellTiter-Glo 2.0, read-out: (−) Dox TRex ERa (GI50)), below 50 nM; in experiment [3] (T-Rex 293 cells with doxycycline-induced ERα expression, CellTiter-Glo 2.0, read-out: (+) Dox TRex ERa (GI50)), below 50 nM.

Turning to `Cc1sc2c(c1C)C(c1ccc(N3CCN(CC4CCN(c5ccc([C@H]6c7ccc(O)cc7CC[C@H]6c6ccccc6)cc5)CC4)CC3)cc1)=N[C@@H](Cc1ncco1)c1nnc(C)n1-2` [III-3, (5S,6R)-6-phenyl-5-(4-(4-((4-(4-((S)-2,3,9-trimethyl-6-(oxazol-2-ylmethyl)-6H-thieno[3,2-f][1,2,4]triazolo[4,3-a][1,4]diazepin-4-yl)phenyl)piperazin-1-yl)methyl)piperidin-1-yl)phenyl)-5,6,7,8-tetrahydronaphthalen-2-ol], the GI50 in experiment [1] lay in the range of 50 to 500 nM; in experiment [2] (setting [4]), 500 to 2500 nM; in experiment [3] (setting [5]), 50 to 500 nM.

On to `Cc1sc2c(c1C)C(c1ccc(N3CCC4(CCN(CC5CCN(c6ccc([C@@H]7c8ccc(O)cc8CC[C@@H]7c7ccccc7)cc6)CC5)CC4)C3)cc1)=N[C@@H](C)c1nnc(C)n1-2` [III-190], for which the GI50 in experiment [1] is 50 to 500 nM; in experiment [2] (setting [4]) it was 500 to 2500 nM; in experiment [3] (setting [5]) it was below 50 nM.

Take `Cc1cc(N2CCN(CC3(O)CCN(c4ccc(C5=N[C@@H](C)c6nnc(C)n6-c6sc(C)c(C)c65)cc4)CC3)CC2)c(F)cc1[C@@H]1c2ccc(O)cc2CC[C@@H]1c1ccccc1` [III-286]: the GI50 was below 50 nM in experiment [1], 500 to 2500 nM in experiment [2] (setting [4]) and below 50 nM in experiment [3] (setting [5]).

`Cc1sc2c(c1C)C(c1ccc(C#CC3CC4(CCN(c5ccc([C@@H]6c7ccc(O)cc7CC[C@@H]6c6ccccc6)cc5)CC4)C3)cc1)=N[C@@H](C)c1nnc(C)n1-2` [I-47]: the GI50 in experiment [1] is 500 to 2500 nM; in experiment [2] (setting [4]), above 2500 nM; in experiment [3] (setting [5]), 50 to 500 nM.

As to `COc1cc(N2CCN(CC3(O)CCN(c4cc(F)c(C5=N[C@@H](C)c6nnc(C)n6-c6sc(C)c(C)c65)cc4F)CC3)CC2)c(F)cc1[C@H]1c2ccc(O)cc2CC[C@H]1c1ccccc1` [III-342, 1-(2,5-difluoro-4-((6S)-2,3,6,9-tetramethyl-6H-thieno[3,2-f][1,2,4]triazolo[4,3-a][1,4]diazepin-4-yl)phenyl)-4-((4-(2-fluoro-4-((1R,2R)-6-hydroxy-2-phenyl-1,2,3,4-tetrahydronaphthalen-1-yl)-5-methoxyphenyl)piperazin-1-yl)methyl)piperidin-4-ol], the GI50 in experiment [1], in experiment [2] (setting [4]) and in experiment [3] (setting [5]) was 50 to 500 nM in each case.

Turning to `CC1=C(c2c(F)cc(F)cc2F)[C@@H](c2ccc(OCCN3CCC[C@@]4(CCN(c5ccc(C6=N[C@@H](C)c7nnc(C)n7-c7sc(C)c(C)c76)cc5)C4)C3)cc2)Oc2ccc(O)cc21` [V-10], the GI50 in experiment [1], in experiment [2] (setting [4]) and in experiment [3] (setting [5]) was 500 to 2500 nM each time.

With `Cc1sc2c(c1C)C(c1ccc(N3CC(CN4CCN(CC5CN(c6ccc([C@@H]7c8ccc(O)cc8CC[C@@H]7c7ccccc7)cc6)C5)CC4)C3)cc1)=N[C@H](C)c1nnc(C)n1-2` [III-146], the GI50 in experiment [1] was below 50 nM; in experiment [2] (setting [4]), 500 to 2500 nM; in experiment [3] (setting [5]) it was 500 to 2500 nM.

On to `Cc1sc2c(c1C)C(c1ccc(NCCCC3CCN(CCOc4ccc([C@@H]5c6ccc(O)cc6CC[C@@H]5c5ccccc5)cc4)CC3)cc1)=NC(Cc1ncco1)c1nnc(C)n1-2` (stereo partly drawn) [III-48], for which the GI50 in experiment [1] was below 50 nM; in experiment [2] (setting [4]), 50 to 500 nM; in experiment [3] (setting [5]) it was below 50 nM.

As to `COc1cc(N2CCN(CC3(O)CCN(c4cc(F)c(C5=N[C@@H](C)c6nnc(C)n6-c6sc(C)c(C)c65)cc4F)CC3)CC2)ccc1[C@@H]1c2ccc(O)cc2CC[C@@H]1c1ccccc1` [III-339, 1-(2,5-difluoro-4-((S)-2,3,6,9-tetramethyl-6H-thieno[3,2-f][1,2,4]triazolo[4,3-a][1,4]diazepin-4-yl)phenyl)-4-((4-(4-((1S,2S)-6-hydroxy-2-phenyl-1,2,3,4-tetrahydronaphthalen-1-yl)-3-methoxyphenyl)piperazin-1-yl)methyl)piperidin-4-ol], the GI50 is below 50 nM in experiment [1], above 2500 nM in experiment [2] (setting [4]) and below 50 nM in experiment [3] (setting [5]).

With `COc1cc(N2CCN(CC3(O)CCN(c4ccc(C5=N[C@@H](C)c6nnc(C)n6-c6sc(C)c(C)c65)cc4)CC3)CC2)c(F)cc1[C@H]1c2ccc(O)cc2CC[C@H]1c1ccccc1` (single isomer, unassigned) [III-312], the GI50 in experiment [1], in experiment [2] (setting [4]) and in experiment [3] (setting [5]) was 50 to 500 nM throughout.

Regarding `CC1=C(C)C2C(c3ccc(N4CC(O)(CC5CCN(c6ccc([C@@H]7c8ccc(O)cc8CC[C@@H]7c7ccccc7)cc6)CC5)C4)cc3)=N[C@@H](Cc3ncco3)c3nnc(C)n3C2S1` (stereo partly drawn) [III-167], the GI50 in experiment [1] was below 50 nM; in experiment [2] (setting [4]), 50 to 500 nM; in experiment [3] (setting [5]) it was below 50 nM.

With `CC1=C(C)C2C(c3ccc(N4CCC(C(=O)N5CC(c6ccc([C@@H]7c8ccc(O)cc8CC[C@@H]7c7ccccc7)cc6)C5)CC4)cc3)N[C@@H](Cc3ncco3)c3nnc(C)n3C2S1` (stereo partly drawn) [III-174], the figures for the GI50 in experiment [1], in experiment [2] (setting [4]) and in experiment [3] (setting [5]) were below 50 nM, 50 to 500 nM and below 50 nM, respectively.

`Cc1sc2c(c1C)C(c1ccc(N3CCC(O)(CN4CCN(c5ccc([C@@H]6c7ccc(O)cc7CC[C@@H]6c6ccc(F)c(F)c6)c(F)c5)CC4)CC3)cc1)=N[C@@H](C)c1nnc(C)n1-2` [III-270]: the GI50 is 50 to 500 nM in experiment [1], 500 to 2500 nM in experiment [2] (setting [4]) and below 50 nM in experiment [3] (setting [5]).

Take `Cc1sc2c(c1C)C(c1ccc(N3CCC(CN4CCN(c5ccc(C6=C(c7ccccc7Cl)CCCc7cc(C(=O)O)ccc76)c(F)c5)CC4)CC3)cc1)=N[C@@H](C)c1nnc(C)n1-2` [IV-48]: the values for the GI50 in experiment [1], in experiment [2] (setting [4]) and in experiment [3] (setting [5]) were below 50 nM, 500 to 2500 nM and below 50 nM, respectively.

Turning to `Cc1sc2c(c1C)C(c1ccc(N3CCC(O)(CN4CCC(c5ccc([C@@H]6c7ccc(O)cc7CC[C@@H]6c6ccccc6)cc5)CC4)CC3)cc1)=N[C@@H](Cc1ncco1)c1nnc(C)n1-2` [III-140], the GI50 is below 50 nM in experiment [1], 500 to 2500 nM in experiment [2] (setting [4]) and 50 to 500 nM in experiment [3] (setting [5]).

Consider `Cc1sc2c(c1C)C(c1ccc(N3CC4(CCC(F)(CN5CCC(c6ccc([C@@H]7c8ccc(O)cc8CC[C@@H]7c7ccccc7)cc6)CC5)CC4)C3)cc1)=N[C@@H](Cc1ncco1)c1nnc(C)n1-2` [III-227], for which the GI50 in experiment [1] was 50 to 500 nM; in experiment [2] (setting [4]), above 2500 nM; in experiment [3] (setting [5]) it was below 50 nM.

Turning to `Cc1sc2c(c1C)C(c1ccc(N3CCOC4(CCN(CCOc5ccc([C@@H]6c7ccc(O)cc7CC[C@@H]6c6ccccc6)cc5)CC4)C3)cc1)=CC(Cc1ncco1)c1nnc(C)n1-2` (stereo partly drawn) [III-60], the GI50 in experiment [1], in experiment [2] (setting [4]) and in experiment [3] (setting [5]) was 50 to 500 nM in each case.
